Test results: ChEMBL document CHEMBL1132137, “Synthesis and antiviral activity of some N-benzenesulphonylbenzimidazoles” (Bioorg Med Chem Lett, 1999)
Converted amounts (≈) assume the structure as drawn. “And” between values parts separate entries of the source, which are not always exact repeats. Equal entries are not always repeated.

How the values were obtained:
[1] = test system: Coxsackievirus B5; test: Inhibitory concentration required to reduce viral plaque formation of Coxsackie B5 virus by 50%; format: functional, organism-based; settings: Enterovirus B
[2] = test system: Coxsackievirus B5; test: Antiviral activity against the Coxsackie B5 virus (RNA virus) at a concentration of 2 ug/mL was determined as total cell infectious dose 50/mL (TCID50) by viral yield assay; format: functional
[3] = test system: Vero; test: Cytotoxicity on the vero cell culture infected with Coxsackie B5 virus at a concentration of 2 ug/mL was determined as cell viability by the MTT test; format: functional, Chlorocebus sabaeus
[4] = test system: Vaccinia virus; test: Antiviral activity against the Vaccinia virus (DNA virus) at a concentration of 2 ug/mL was determined as Plaque forming unit/mL(PFU) by plaque assay; format: functional, Orthopoxvirus vaccinia
[5] = test system: Vero; test: Cytotoxicity on the vero cell culture infected with Coxsackie B5 virus at a concentration of 1 ug/mL was determined as cell viability by the MTT test; format: functional, Chlorocebus sabaeus
[6] = test system: Human alphaherpesvirus 1; test: Antiviral activity against the Herpes simplex 1 virus (DNA virus) at a concentration of 2 ug/mL was determined as Plaque forming unit/mL(PFU) by plaque assay; format: functional
[7] = test system: Vero; test: (§1) Cytotoxicity on the vero cell culture infected with mL and was determined as reduction in protein content by the Lowry test; format: functional, Chlorocebus sabaeus
[8] = test system: Mumps virus; test: Antiviral activity against the Mumps virus (RNA virus) at a concentration of 2 ug/mL was determined as total cell infectious dose 50/mL (TCID50) by viral yield assay; format: functional, Mumps orthorubulavirus
[9] = test system: Vero; test: as §1; format: functional, Chlorocebus sabaeus; remark: listed apart in the source
[10] = test system: Vero; test: as §1; format: functional, Chlorocebus sabaeus; parameters: unit not given here
[11] = test system: Vero; test: as §1; format: functional, Chlorocebus sabaeus; parameters: unit not given here; remark: listed apart in the source
[12] = test system: Vero; test: Cytotoxicity on the vero cell culture infected with Coxsackie B5 virus at a concentration of 3 ug/mL was determined as cell viability by the MTT test; format: functional, Chlorocebus sabaeus
[13] = test system: Vero; test: Cytotoxicity on the vero cell culture infected with Coxsackie B5 virus at a concentration of 5 ug/mL was determined as cell viability by the MTT test; format: functional, Chlorocebus sabaeus
[14] = test system: Coxsackievirus B5; test: Antiviral activity against the Coxsackie B5 virus (RNA virus) at a concentration of 3 ug/mL was determined as total cell infectious dose 50/mL (TCID50) by viral yield assay; format: functional
[15] = test system: Coxsackievirus B5; test: Antiviral activity against the Coxsackie B5 virus (RNA virus) at a concentration of 4 ug/mL was determined as total cell infectious dose 50/mL (TCID50) by viral yield assay; format: functional
[16] = test system: Vero; test: as §1; format: functional, Chlorocebus sabaeus; remark: listed apart in the source
[17] = test system: Vero; test: Cytotoxicity on the vero cell culture infected with Coxsackie B5 virus at a concentration of 4 ug/mL was determined as cell viability by the MTT test; format: functional, Chlorocebus sabaeus
[18] = test system: Human alphaherpesvirus 1; test: Antiviral activity against the Herpes simplex 1 virus (DNA virus) at a concentration of 5 ug/mL was determined as Plaque forming unit/mL(PFU) by plaque assay; format: functional
[19] = test system: Vaccinia virus; test: Antiviral activity against the Vaccinia virus (DNA virus) at a concentration of 5 ug/mL was determined as Plaque forming unit/mL(PFU) by plaque assay; format: functional, Orthopoxvirus vaccinia
[20] = test system: Mumps virus; test: Antiviral activity against the Mumps virus (RNA virus) at a concentration of 5 ug/mL was determined as total cell infectious dose 50/mL (TCID50) by viral yield assay; format: functional, Mumps orthorubulavirus
[21] = test system: Coxsackievirus B5; test: Antiviral activity against the Coxsackie B5 virus (RNA virus) at a concentration of 5 ug/mL was determined as total cell infectious dose 50/mL (TCID50) by viral yield assay; format: functional
[22] = test system: Vero; test: Cytotoxicity on the vero cell culture infected with Coxsackie B5 virus at a concentration of 10 ug/mL was determined as cell viability by the MTT test; format: functional, Chlorocebus sabaeus
[23] = test system: Coxsackievirus B5; test: Antiviral activity against the Coxsackie B5 virus (RNA virus) at a concentration of 80 ug/mL was determined as total cell infectious dose 50/mL (TCID50) by viral yield assay; format: functional
[24] = test system: Vero; test: Cytotoxicity on the vero cell culture infected with Coxsackie B5 virus at a concentration of 80 ug/mL was determined as cell viability by the MTT test; format: functional, Chlorocebus sabaeus

Structure (SMILES)	Cell viability [3]	Cytotoxicity [9]	Cytotoxicity [10]	Cytotoxicity [11]	Cell viability [12]	Cell viability [13]	TCID50 [14]	further results
O=[N+]([O-])c1ccccc1S(=O)(=O)n1c(CCc2ccccn2)nc2cc(Cl)c(Cl)cc21	1.36	784.8						IC50 [1]: 8 µg/mL (≈ 16.8 µM); TCID50 [2]: 1000000 mL⁻¹; Activity [4]: 120 pfu/ml; Cell viability [5]: 1.49; Activity [6]: 4700000 pfu/ml; Cytotoxicity [7]: 840.5; TCID50 [8]: 100000 mL⁻¹
O=[N+]([O-])c1ccc(S(=O)(=O)n2c(Sc3ncccc3[N+](=O)[O-])nc3ccccc32)cc1			678.6	508.9	1.36	0.8	10000000 mL⁻¹	
O=[N+]([O-])c1ccc(S(=O)(=O)n2c(SCc3ccccn3)nc3ccccc32)cc1	1.44	744.3						TCID50 [15]: 1000000 mL⁻¹; Cytotoxicity [16]: 734.2; Cell viability [17]: 1.12
O=[N+]([O-])c1ccc(S(=O)(=O)n2c(Sc3ncccc3[N+](=O)[O-])nc3cc(Cl)c(Cl)cc32)cc1			595.6	456.1	1.27	0.79	1000000 mL⁻¹	
O=[N+]([O-])c1ccccc1S(=O)(=O)n1c(CCc2ccccn2)nc2ccccc21		627.8		759.5				IC50 [1]: 5 µg/mL (≈ 12.2 µM); Activity [18]: 1800000 pfu/ml; Activity [19]: 750 pfu/ml; TCID50 [20]: 10000 mL⁻¹; TCID50 [21]: 100000 mL⁻¹; Cell viability [22]: 0.82 and 1.23
O=[N+]([O-])c1ccc(S(=O)(=O)n2c(SCc3ccccn3)nc3cc(Cl)c(Cl)cc32)cc1			663.4	540.8	1.23	0.89	1000000 mL⁻¹	
O=[N+]([O-])c1ccccc1S(=O)(=O)n1c(SCc2ccccn2)nc2ccccc21	1.02	724.1						TCID50 [2]: 10000000 mL⁻¹; Cell viability [5]: 1.42; Cytotoxicity [7]: 774.7
O=[N+]([O-])c1ccccc1S(=O)(=O)n1c(SCc2ccccn2)nc2cc(Cl)c(Cl)cc21			740.1	495.8	1.12	0.83	10000000 mL⁻¹	
N=C(N)N [GUANIDINE]		825.7	839.4		1.45		1000000 mL⁻¹	TCID50 [23]: 10000 mL⁻¹; Cell viability [24]: 1.41
